Test results: patent US8232101B2, “Identification of antigenic peptides from multiple myeloma cells” (Janssen Pharmaceutica N.V., priority 2009, dated 2012)

Experiments:
[1] = test system: T2 cells loaded with individual peptides; assay: 51Cr Release Assay for activity of CTL generated with peptide-loaded Drosophila aAPC; type: cell-based, human; conditions: for Induction of CTL in two normal donors: Donor 1 and Donor 2, FIG. 3 and FIG. 4; for CTL Activities Strong: number of donors that elicited Strong activity over total number of donors; for CTL Activities Strong / CTL Activities Weak / CTL Activities None: T2 targets loaded with individual peptide; for CTL Activities Weak: number of donors that elicited Weak activity over total number of donors; for CTL Activities None: number of donors that elicited no activity over total number of donors
Procedure: Drosophila aAPC were generated from Schneider S2 cells (S2 cells), which were originally established in 1969 from several hundred Oregon-R (wild type) Drosophila melanogaster (Oregon-R) embryos (American Type Culture Collection (ATCC) CRL-1963) according to published procedures (Schneider, J. Embryol. Exp. Morph. 1972 Vol 27, pp. 353-365), and deposited in the ATCC(CRL10974). S2 cells are grown in commercial Schneider's Drosophila medium supplemented with 10% heat-inactivated fetal bovine serum. In order to generate aAPCs, human complementary DNAs (cDNAs) for HLA-A2.1, B7.1, LFA-3, ICAM-1 and CD70, were individually inserted into the pRmHa-3 vector and S2 cells were transfected using the calcium phosphate precipitation method with a mixture of HLA-A2.1, B7.1, LFA-3, ICAM-1 and CD70 plasmid DNAs (for aAPC clone 1120) and the phshneo plasmid. (see U.S. Pat. No. 6,225,042 regarding construction and use of pRMHa plasmid vectors). The human cDNAs were prepared using standard techniques by reverse transcription-PCR using primers derived from the published sequences for HLA-A2.1 from K562 cells, B7.1 from K562 cells, LFA-3 from HL60 cells, ICAM-1 from K562 cells, and CD70 from HLA-A2.1+LCL cells. K562 cells are a human erythroleukemic cell line, HL60 cells are a promyelocytic leukemia human cell line, and HLA-A2.1+LCL cells are an Epstein-Barr virus (EBV)-transformed lymphoblastoid cell line (LCL). Stably transfected cells were selected by culturing in Schneider's medium containing geneticin. Prior to scale up of the cells, expression of the transfected genes is induced by the addition of CuSO4. The level of expression is assessed by flow cytometry using anti-HLA-A2.1, anti-B7.1, anti-LFA-3, anti-ICAM-1 and CD70 antibodies. For efficient in vitro activation of the CD8+ lymphocytes, greater than 30% of the Drosophila cells must express the HLA-A2.1 molecule. The Drosophila cells regularly express each of the molecules at levels between 70-90%. Drosophila aAPC were washed and then incubated at RT for 4 hours with 10 μM of different combinations of mixed peptides or individual peptides (See e.g. U.S. Pat. Nos. 6,225,042, 6,355,479, 6,362,001 and 6,790,662; U.S. Patent Application Publication Nos. 2009/0017000 and 2009/0004142; and International Publication No. WO2007/103009). Purified human CD8+ T cells from HLA-A2 positive donors were then incubated with peptide-loaded Drosophila APC at 37° C., 5% CO2, for 5 days. Human IL-2 (20 U/ml, R&D Systems) and IL-7 (30 U/ml, R&D Systems) were added at day 5 and the activated CD8+ T cells (CTL) were re-stimulated twice, at day 7 and day 15, with non-CD8 adherent cells in a total peripheral blood mononuclear cell (PBMC) preparation from the same donor in the presence of peptides.
A number of different CTL were generated using CD8+ T cells from different donors and different combinations of mixed peptides, including combinations that contained only one peptide. For example, 24 selected peptides were mixed or used individually to create different combinations of peptide mixtures (PM) or individual peptides (P5 and P14) and produce peptide-loaded Drosophila APC. The resulting peptide-loaded Drosophila APC were incubated with CD8+ T cells from 2 different donors (Donor 1 and Donor 2) to produce 11 different batches of CTL (Donor 1: PM1, PM2, PM3, PM4, and P14; Donor 2: PM1, PM2, PM3, PM4, P5, and P14) (Table 3).
CTL (Effector) activity was measured with a standard chromium (^51Cr) release assay, with T2 cells (Target) loaded with individual peptides and also with a number of tumor cell lines as target cells (Brunner et al., Immunology. 1968 February; 14(2):181-96). The highest Effector (E) Target (T) ratio (E/T) was 50:1, with 1:5 serial dilutions of CTL (Effector) used to produce a dose response. Before the assay, Target cells (T2 cells at 3×10^6 cells/100 ul in 1×PBS with 4% FCS) were labeled by adding 100 ul of ^51Cr (Perkin Elmer) and incubating at 37° C. for 1 hour. […]

[2] = biological target: T1, HLA-A2 molecules in T2 cells (Homo sapiens, UniProt P04439, D140Y/D185E/D98H/E176V/E277Q/G131W/G231S/I119V/I121R/I166T/I218V/L300P/L318F/N151K/N90K/P208A/P217A/Q86G/Q94H/R138H/R169H/T345S); assay: HLA-A2 Stabilization Assay (peptide binding, T2 cells, flow cytometry); parameters: key: Strong (S); Median (M); Weak (W); None (N)
T1 construct: HLA-A2 molecules that are synthesized in a transporter associated with antigen processing (TAP)-deficient cell line, T2; host or cells: T2 cells (TAP-deficient human cell line)
Excerpt: The assay for peptide binding to class I major histocompatibility complex (MHC/HLA-A2) molecules is based on the ability of peptides to stabilize MHC class I, HLA-A2 molecules that are synthesized in a transporter associated with antigen processing (TAP)-deficient cell line, T2 (ATCC® Number: CRL-1992). The extent of stabilization of MHC class I molecules is directly related to the binding affinity of the added peptides (Townsend et al., Cell. 1990 Jul. 27; 62(2):285-95; Andersen et al., Tissue Antigens. 1999 August; 54(2):185-90).
For the assay, T2 cells were plated in 96-well V-bottom plates, 100 ul/well RPMI media, at a density of 1×10^6 cells/ml, with final peptide concentrations of 200 uM, 20 uM, 2 uM, 200 nM, 20 nM, 2 nM, and no peptide as negative control. The cells with peptides were incubated for 18 hours at 26° C., 5% CO2. After 18 hours, the plates were transferred to 37° C., 5% CO2 and incubated for an additional 3 hours. The cells in plate were washed once with FACS buffer (PBS, 2.5% FCS, 1% NaN3) and then stained by adding 1 ul/well FITC-labeled mouse anti-human HLA-A2 antibody (BD Pharmingen, Cat. No. 551285), 1 ul/well PI, and then incubating at 4° C. for 30 minutes. After staining, cells were resuspended in 200 ul of FACS buffer and transferred from 96-well plates to racks of 96 microtubes. Samples were run on a FACScan flow cytometer and the data were analysed by using CellQuest software.
A peptide of Hepatitis B Core protein (HBC) was used as a positive control. The Hepatitis B Core peptide is a potent HLA-A2.1 epitope and consists of residue numbers 18-27 of the core sequence, amino acids […] (SEQ ID NO:73) (Zhang et al. Immunology. 2007, 121(1):105-12).

[3] = truncated versions of P3, P13, P14

Row | HLA-A2 Binding [2, 3] | Substance | CTL Activities None [1] | other results
1 |  | ALNEEAGRLLL (listed as Homo sapiens) [Peptide P15] | 1/9 | Induction of CTL in two normal donors [1]: induced CTL; CTL Activities Strong [1]: 3/9; CTL Activities Weak [1]: 5/9
2 | N | DLPGITR (listed as Homo sapiens) [Peptide P14-17] |  | 
3 | N | DLPGITRV (listed as Homo sapiens) [Peptide P14-3] |  | 
4 | N | DLPGMTKV (listed as Homo sapiens) [Peptide P13-3] |  | 
5 |  | FLASESLLKGAL (listed as Homo sapiens) [Peptide P23] | 1/2 | Induction of CTL in two normal donors [1]: induced CTL; CTL Activities Strong [1]: 1/2
6 |  | FLLPHPGLQV (listed as Homo sapiens) [Peptide P10] | 1/2 | Induction of CTL in two normal donors [1]: induced CTL; CTL Activities Strong [1]: 1/2
7 |  | FMLQTYGQQL (listed as Homo sapiens) [Peptide P14-18] |  | HLA-A2 Binding ([2]; computer predicted peptides): N
8 |  | HSLDNSLSILR (listed as Homo sapiens) [Peptide P16] | 2/2 | 
9 | N | IDLPGITRV (listed as Homo sapiens) [Peptide P14-2] |  | 
10 |  | KLLEPVLLL (listed as Homo sapiens) [Peptide P6] | 2/3 | CTL Activities Weak [1]: 1/3
11 |  | KNPVLLKIL (listed as Homo sapiens) [Peptide P7] | 2/3 | CTL Activities Weak [1]: 1/3
12 | N | LIDLPGIT (listed as Homo sapiens) [Peptide P14-13] |  | 
13 | N | LIDLPGITR (listed as Homo sapiens) [Peptide P14-12] |  | 
14 | N | LIDLPGITRV (listed as Homo sapiens) [Peptide P14-1] |  | 
15 |  | LLGPRLVLA (listed as Homo sapiens) [Peptide P1] | 6/10 | Induction of CTL in two normal donors [1]: induced CTL; CTL Activities Strong [1]: 2/10; CTL Activities Weak [1]: 2/10
16 |  | LLIDDKGTIKL (listed as Homo sapiens) [Peptide P20] | 2/3 | CTL Activities Weak [1]: 1/3
17 |  | LLLDVAYGAVQA (listed as Homo sapiens) [Peptide P22] | 1/2 | CTL Activities Strong [1]: 1/2
18 |  | LLLDVPTAAVQA (listed as Homo sapiens) [Peptide P21] | 2/3 | CTL Activities Strong [1]: 1/3
19 |  | LLNMPPAHLK (listed as Homo sapiens) [Peptide P11] |  | CTL Activities Strong [1]: 1/2; CTL Activities Weak [1]: 1/2
20 |  | LLYQGPHNTL (listed as Homo sapiens) [Peptide P12] | 2/3 | CTL Activities Weak [1]: 1/3

Row | HLA-A2 Binding [2, 3] | Substance | CTL Activities None [1] | other results
21 | N | LNLLEL (listed as Homo sapiens) [Peptide P3-3] |  | 
22 | N | LPGITRV (listed as Homo sapiens) [Peptide P14-4] |  | 
23 | N | LPGMTKV (listed as Homo sapiens) [Peptide P13-4] |  | 
24 |  | LSLDSSLSSLL (listed as Homo sapiens) [Peptide P17] | 2/10 | Induction of CTL in two normal donors [1]: induced CTL; CTL Activities Strong [1]: 4/10; CTL Activities Weak [1]: 4/10
25 | N | LVDLPGMT (listed as Homo sapiens) [Peptide P13-11] |  | 
26 | N | LVDLPGMTKV (listed as Homo sapiens) [Peptide P13-1] |  | 
27 | N | LVLNLLEL (listed as Homo sapiens) [Peptide P3-1] |  | 
28 |  | NLLPKLHVV (listed as Homo sapiens) [Peptide P9] | 2/2 | 
29 | N | PGITRV (listed as Homo sapiens) [Peptide P14-5] |  | 
30 | N | PGMTKV (listed as Homo sapiens) [Peptide P13-5] |  | 
31 |  | RSLFLLYAL (listed as Homo sapiens) [Peptide P4] |  | CTL Activities Weak [1]: 1/1
32 | N | SLVLNL (listed as Homo sapiens) [Peptide P3-6] |  | 
33 | N | SLVLNLL (listed as Homo sapiens) [Peptide P3-5] |  | 
34 | N | SLVLNLLE (listed as Homo sapiens) [Peptide P3-4] |  | 
35 | N | TLIDLP (listed as Homo sapiens) [Peptide P14-10] |  | 
36 | N | TLIDLPGI (listed as Homo sapiens) [Peptide P14-8] |  | 
37 | N | TLIDLPGIT (listed as Homo sapiens) [Peptide P14-7] |  | 
38 | N | TLIDLPGITR (listed as Homo sapiens) [Peptide P14-6] |  | 
39 |  | VLIPKLPQL (listed as Homo sapiens) [Peptide P5] | 2/3 | Induction of CTL in two normal donors [1]: induced CTL; CTL Activities Weak [1]: 1/3
40 |  | YLLPAIVHI (listed as Homo sapiens) [Peptide P8] | 3/3 | 

Row | Substance | HLA-A2 Binding [2, 3] | CTL Activities None [1] | other results
41 | DLPGMTK (listed as Homo sapiens) [Peptide P13-15] | N |  | 
42 | TLIDLPG (listed as Homo sapiens) [Peptide P14-9] | N |  | 
43 | TLVDLPG (listed as Homo sapiens) [Peptide P13-9] | N |  | 
